≈ marks a conversion by molar mass, not a printed value.
Columns and labels:
L1210 [1] = assay: Antileukemic activity against mouse L1210 cells allografted in ip dosed BDF1 mouse assessed as maximum tolerated dose for survival over 30 days administered 24 hrs; type: functional
Mus musculus [2] = assay: Acute toxicity in po dosed BDF1 mouse; type: organism-based; conditions: in vivo
L1210 [3] = assay: Cytotoxicity against mouse L1210 cells assessed as growth inhibition after 72 hrs; type: functional; conditions: L1210, 72 h, read-out: ED50 (the source's name)
L1210 [4] = assay: Antileukemic activity against mouse L1210 cells allografted in BDF1 mouse assessed as increase in life span at 100 mg/kg, ip administered 24 hrs relative to control; type: functional; conditions: route intraperitoneal
L1210 [5] = assay: Antileukemic activity against mouse L1210 cells allografted in ip dosed BDF1 mouse assessed as maximum tolerated dose for survival over 60 days administered 24 hrs; type: functional
L1210 [6] = assay: Ratio of Cmax to Cmin for antileukemic activity against mouse L1210 cells allografted in iv dosed BDF1 mouse assessed as survival over 60 days; type: functional
L1210 [7] = assay: Antileukemic activity against mouse L1210 cells allografted in BDF1 mouse assessed as mean survival time at 100 mg/kg, ip administered 24 hrs (Rvb 4.6 +/- 0.16 days); type: functional; conditions: route intraperitoneal
L1210 [8] = assay: Ratio of Cmax to Cmin for antileukemic activity against mouse L1210 cells allografted in ip dosed BDF1 mouse assessed as survival over 60 days; type: functional
L1210 [9] = assay: Antileukemic activity against mouse L1210 cells allografted in BDF1 mouse assessed as mean survival time at 20 mg/kg, ip administered 24 hrs (Rvb 4.6 +/- 0.16 days); type: functional; conditions: route intraperitoneal
L1210 [10] = assay: Ratio of ILSmax to ILS30 for antileukemic activity against mouse L1210 cells allografted in ip dosed BDF1 mouse; type: functional
L1210 [11] = assay: Antileukemic activity against mouse L1210 cells allografted in BDF1 mouse assessed as mean survival time at 200 mg/kg, ip administered 24 hrs (Rvb 4.6 +/- 0.16 days); type: functional; conditions: route intraperitoneal
L1210 [12] = assay: Antileukemic activity against mouse L1210 cells allografted in BDF1 mouse assessed as mean survival time at 50 mg/kg, ip administered 24 hrs (Rvb 4.6 +/- 0.16 days); type: functional; conditions: route intraperitoneal
L1210 [13] = assay: Antileukemic activity against mouse L1210 cells allografted in iv dosed BDF1 mouse assessed as maximum tolerated dose for survival over 60 days administered 24 hrs; type: functional
L1210 [14] = assay: Ratio of Cmax to Cmin for antileukemic activity against mouse L1210 cells allografted in po dosed BDF1 mouse assessed as survival over 60 days; type: functional
Rattus norvegicus [15] = assay: Acute toxicity in iv dosed Wistar rat; type: organism-based; conditions: in vivo
L1210 [16] = assay: Antileukemic activity against mouse L1210 cells allografted in ip dosed BDF1 mouse administered 24 hrs; type: functional
Rattus norvegicus [17] = assay: Acute toxicity in ip dosed Wistar rat; type: organism-based; conditions: in vivo
Rattus norvegicus [18] = assay: Acute toxicity in po dosed Wistar rat; type: organism-based; conditions: in vivo
L1210 [19] = assay: Antileukemic activity against mouse L1210 cells allografted in iv dosed BDF1 mouse assessed as survival over 60 days administered 24 hrs; type: functional; conditions: read-out: MED
L1210 [20] = assay: Antileukemic activity against mouse L1210 cells allografted in ip dosed BDF1 mouse assessed as survival over 60 days administered 24 hrs; type: functional; conditions: read-out: MED
L1210 [21] = assay: Antileukemic activity against mouse L1210 cells allografted in po dosed BDF1 mouse assessed as survival over 60 days administered 24 hrs; type: functional; conditions: read-out: MED
Mus musculus [22] = assay: Acute toxicity in ip dosed BDF1 mouse; type: organism-based; conditions: in vivo
Mus musculus [23] = assay: Acute toxicity in iv dosed BDF1 mouse; type: organism-based; conditions: in vivo
L1210 [24] = assay: Antileukemic activity against mouse L1210 cells allografted in BDF1 mouse assessed as increase in life span at 200 mg/kg, ip administered 24 hrs relative to control; type: functional; conditions: route intraperitoneal
L1210 [25] = assay: Antileukemic activity against mouse L1210 cells allografted in po dosed BDF1 mouse assessed as maximum tolerated dose for survival over 60 days administered 24 hrs; type: functional
L1210 [26] = assay: Antileukemic activity against mouse L1210 cells allografted in BDF1 mouse assessed as increase in life span at 20 mg/kg, ip administered 24 hrs relative to control; type: functional; conditions: route intraperitoneal
L1210 [27] = assay: Antileukemic activity against mouse L1210 cells allografted in BDF1 mouse assessed as increase in life span at 50 mg/kg, ip administered 24 hrs relative to control; type: functional; conditions: route intraperitoneal
Mus musculus [28] = assay: Toxicity in BDF1 mouse allografted with mouse L1210 cells assessed as mortality at 80 mg/kg, ip administered 24 hrs measured within 30 days; type: organism-based; design: dose 80 mg/kg, route intraperitoneal; conditions: in vivo

With `O=P1(NCCCl)OCCC(OO)N1CCCl` (configuration not stated) the ILSmax (L1210 [1]) was 100 mg/kg, the LD10 (Mus musculus [2]) was 1000 mg/kg and the EC50 (L1210 [3]) was 1.8 µg/mL (≈ 6.14 µM). The ILS at 100 mg/kg (L1210 [4]) was > 416%, the MTD (L1210 [5]) was 70 mg/kg and the Ratio (L1210 [6]) was 1.8. For the same molecule, the MST (L1210 [7]) was >23.8 days, the Ratio (L1210 [8]) was 2.3 and the MST (L1210 [9]) was 8.9 days. The Ratio (L1210 [10]) was 7, the MST (L1210 [11]) was >26.5 days and the MST (L1210 [12]) was 12.5 days. It also gave an MTD (L1210 [13]) of 160 mg/kg, a Ratio (L1210 [14]) of 1 and an LD10 (Rattus norvegicus [15]) of 250 mg/kg. It also gave an ILS30 (L1210 [16]) of 15 mg/kg, an LD10 (Rattus norvegicus [17]) of 250 mg/kg and an LD10 (Rattus norvegicus [18]) of 800 mg/kg. The minimal effective dose (L1210 [19]) was 90 mg/kg, the minimal effective dose (L1210 [20]) was 30 mg/kg and the minimal effective dose (L1210 [21]) was 400 mg/kg. For the same molecule, the LD10 (Mus musculus [22]) was 220 mg/kg, the LD10 (Mus musculus [23]) was 220 mg/kg and the ILS at 200 mg/kg (L1210 [24]) was > 476%. For the same molecule, the MTD (L1210 [25]) was 400 mg/kg, the ILS at 20 mg/kg (L1210 [26]) was 93% and the ILS at 50 mg/kg (L1210 [27]) was 172%.

Work on `CS(=O)(=O)OCCN1C(OO)CCOP1(=O)N(CCCl)CCCl` (configuration not stated) yielded an ILSmax (L1210 [1]) of 80 mg/kg, an EC50 (L1210 [3]) of 0.06 µg/mL (≈ 0.144 µM) and a Ratio (L1210 [10]) of 8. The ILS30 (L1210 [16]) was 10 mg/kg and the Activity (Mus musculus [28]) was “Toxic”.

For `CCN(CCCl)P1(=O)OCCC(OO)N1CCOS(C)(=O)=O` (configuration not stated), the ILSmax (L1210 [1]) was 70 mg/kg, the EC50 (L1210 [3]) was 0.5 µg/mL (≈ 1.31 µM) and the Ratio (L1210 [10]) was 12. It also gave an ILS30 (L1210 [16]) of 6 mg/kg.

`CCS(=O)(=O)OCCN1C(OO)CCOP1(=O)N(C)CCCl` (configuration not stated) gave an ILSmax (L1210 [1]) of 70 mg/kg, an EC50 (L1210 [3]) of 1 µg/mL (≈ 2.63 µM) and a Ratio (L1210 [10]) of 14. It also gave an ILS30 (L1210 [16]) of 5 mg/kg.

`O=P1(NCCBr)OCCC(OO)N1CCBr` (configuration not stated) was tested, and the ILSmax (L1210 [1]) was 70 mg/kg, the EC50 (L1210 [3]) was 2 µg/mL (≈ 5.24 µM) and the Ratio (L1210 [10]) was 12. The ILS30 (L1210 [16]) was 6 mg/kg.

`CN(CCOS(C)(=O)=O)P1(=O)OCCC(OO)N1CCCl` (configuration not stated) showed an ILSmax (L1210 [1]) of 60 mg/kg, an EC50 (L1210 [3]) of 0.5 µg/mL (≈ 1.36 µM) and a Ratio (L1210 [10]) of 20. It also gave an ILS30 (L1210 [16]) of 3 mg/kg.

In the case of `CN(CCCl)P1(=O)OCCC(OO)N1CCBr` (configuration not stated), the ILSmax (L1210 [1]) is reported as 35 mg/kg, the EC50 (L1210 [3]) is reported as 0.5 µg/mL (≈ 1.42 µM) and the Ratio (L1210 [10]) is reported as 5. For the same molecule, the ILS30 (L1210 [16]) was 7 mg/kg.
